The term melting point denotes the temperature, or range, at which the solid turns liquid.

Each structure is given as a SMILES string.

The source of these data is patent US6930104B2, “Heterocyclic derivatives” (Takeda Chemical Industries, Ltd., priority 2001, dated 2005).

The test system of series [1] is sAPP secretion in PC12h cells. In words: Stimulatory effects on sAPP secretion (Western blotting of culture supernatant). The format is cell-based, rat. To be noted: 5 hours after addition; for increase in sAPP production compared to the control group: averaged from triplicate wells. As for the experimental part:
(§1) PC12h cells, a subspecies of rat-derived pheochromocytoma PC12 cells, were provided by the late Professor Hiroshi Hatanaka (Osaka University, Japan). Dulbecco's modified Eagle's medium (DMEM), phosphate buffered saline (PBS), HEPES (N-2-hydroxyethylpiperazine-N′-2-ethanesulfonic acid) buffer (pH 7.4), horse serum (HS) and a penicillin (5000 U/ml)/streptomycin (5 mg/ml) mixture were purchased from Gibco BRL. Fetal calf serum (FCS) was purchased from Bioscience PTY. Transferrin, insulin and progesterone were purchased from Sigma. The flasks used for culture were manufactured by Falcon, and the collagen-coated 96-well and 6-well multiwell plates used for assay were manufactured by Iwaki Glass Co., Ltd. (Japan). An LDH assay kit (LDH cytotoxic test Wako) and an anti-βAPP antibody 22C11 were purchased from Wako Pure Chemical Industries, Ltd. (Japan) and Chemicon, respectively. All other chemicals used were commercially available and of reagent grade.
PC12h cells were grown in DMEM culture medium supplemented with 10% FCS, 5% HS and penicillin/streptomycin, and then released by pipetting. The cells were seeded in collagen-coated 6-well plates at a confluency of 50% to 70% and allowed to stand for 1 day. On the following day, the wells were washed once with 10 mM HEPES/DMEM (1 ml) and then filled with 10 mM HEPES/DMEM culture medium (0.5 ml), followed by addition of Example No. 5 or 32. After 5 hours, the culture supernatant was collected from each well. Trichloroacetic acid (final concentration: 15%) was added to the culture supernatant to precipitate proteins, which were then concentrated. After addition of SDS-PAGE sample buffer (Daiichi Pure Chemicals Co., Ltd., Japan), each sample was boiled for 5 minutes, subjected to SDS-PAGE (10/20% gel, ATTO) and then transferred to a PVDF membrane (Bio-Rad Laboratories) at 2 mA/cm^2 for 60 minutes. […] An ECL Plus (Amersham) was used for detection and the signals were digitized by an LAS-1000 plus (Fuji film, Japan), followed by quantification with NIH-image software.

The subject of another series is PC12h cells. In words: Inhibitory effects on glutamate-induced cell death (LDH activity of living cells). The format is cell-based, rat. To be noted: concentration of 1 μM, 72 hours. As for the experimental part:
as §1
PC12h cells were seeded in 96-well plates at a density of 2×10^4 cells/cm^2. […] After 72 hours, living cells were counted. Cell counts were determined as follows: after removal of the culture medium, living cells were solubilized in 0.1% Tween 20-containing PBS and assayed for LDH activity. The results were expressed as % of control, whose LDH activity was set to 100.

As for `COc1ccc(C(=O)N2c3ccccc3C(n3c4ccccc4c4ccccc43)CC2C)cc1OC` (stereo not drawn) [Example 32, 2,4-cis-4-(9H-9-Carbazolyl)-1-(3,4-dimethoxybenzoyl)-2-methyl-1,2,3,4-tetrahydroquinoline], the “increase in sAPP production compared to the control group” value in series [1] (1 nM concentration) is listed as “approximately 2.2 fold”. Regarding `CCCCC1C(O)C(N2CCCc3ccccc32)c2ccccc2N1C(=O)c1ccc(OC)c(OC)c1` (stereo not drawn) [Example 76, 2,3-trans-2,4-cis-2-Butyl-1-(3,4-dimethoxybenzoyl)-3-hydroxy-4-(1,2,3,4-tetrahydroquinolin-1-yl)-1,2,3,4-tetrahydroquinoline], the melting point is 200 to 202 °C. Turning to `COc1ccc(C(=O)N2c3ccccc3C(N3CCCc4ccccc43)CC2C)cc1OC` (single isomer, unassigned; (-)) [Example 5, (−)-2,4-cis-1-(3,4-Dimethoxybenzoyl)-2-methyl-4-(1,2,3,4-tetrahydroquinolin-1-yl)-1,2,3,4-tetrahydroquinoline], the “increase in sAPP production compared to the control group” value in series [1] (10 nM concentration) is given as “approximately 2.0 fold”. Further, the “sAPP level in the culture medium as compared to the control group” value in series [1] (Western blotting with anti-βAPP antibody 22C11) was “concentration-dependent increase”. In the series on PC12h cells, the “inhibition of cell death induced by addition of 1 mM glutamic acid” value is listed as “completely inhibited”.

As for `CCOc1ccc(C(=O)N2c3ccccc3C(n3c4ccccc4c4ccccc43)CC2C)cc1OCC` (stereo not drawn) (hydrate or solvate) [Example 144, 2,4-cis-4-(9H-9-Carbazolyl)-1-(3,4-diethoxybenzoyl)-2-methyl-1,2,3,4-tetrahydroquinoline], the melting point was in the range of 240 to 241 °C.

Compound `COc1ccc(C(=O)N2c3ccccc3C(N3CCCc4ccccc43)C(OC(C)=O)C2C)cc1OC` (racemic) [Example 17, 2,3-trans-2,4-cis-3-Acetoxy-1-(3,4-dimethoxybenzoyl)-2-methyl-4-(1,2,3,4-tetrahydroquinolin-1-yl)-1,2,3,4-tetrahydroquinoline] came in with a melting point of 130 to 131 °C. Consider `CCCCC1CC(N2CCCc3ccccc32)c2ccccc2N1C(=O)c1ccc(OC)c(OC)c1` (stereo not drawn) [Example 77, 2,4-cis-2-Butyl-1-(3,4-dimethoxybenzoyl)-4-(1,2,3,4-tetrahydroquinolin-1-yl)-1,2,3,4-tetrahydroquinoline], for which the melting point lay within 159 to 160 °C.
